This is an account of results in paper PMC3942691, “The Dipeptide Monoester Prodrugs of Floxuridine and Gemcitabine—Feasibility of Orally Administrable Nucleoside Analogs” (Pharmaceuticals, 2014).

Data set [1] deals with AsPC-1 cells. The data set is described as follows: Uptake study in AsPC-1 cells. It counts as cell-based. Conditions: 0.1 mM, 1 h. As to the method: Caco-2, Panc-1, and AsPC-1 cells were grown on a 6-well plate for 18, 6, and 6 days, respectively. Wells were rinsed with MES (pH 6.0) buffer twice. Fresh MES buffer was reapplied to each well and incubated at 37 °C for 15 min. Each drug was individually tested from freshly prepared solutions in MES buffer (0.1 mM, total 0.3 mL) with the presence and the absence of 10 mM glycyl-proline (Gly-Pro). The solution was placed in each well and incubated at 37 °C for 60 min. Drug solution was removed and 3 mL of ice-cold PBS was immediately placed in each well. Each well was rinsed with 3 mL of cold-PBS twice and 0.5 mL of methanol/H2O (1:1) containing 0.1% TFA was placed in each well. The cell suspension was collected and transferred to a new tube. Those tubes were spun at 1,000 × g at 4 °C for 5 min. The supernatant was mixed with equal amount of water with either 0.1% formic acid or 0.1% ammonium hydroxide for LC-MS analysis. The cell pullets were used to determine protein amount with the Bio-Rad DC Protein Assay using bovine serum albumin as a standard.
The LC-MS analytical method of 5′-mono amino acid ester prodrugs of floxuridine has been reported previously. The LC-MS analysis of dipeptide monoester prodrugs of floxuridine and gemcitabine along with their parent drugs was modified and performed in a similar manner. Briefly, LC-MS analysis of the uptake drug amount was performed in triplicate on LCMS-2010EV (Shimadzu Scientific Instruments, Kyoto, Japan) equipped with an ESI (electrospray ionization) source. The Shimadzu LC-MS system consisting of Shimadzu LC-20AD pumps with DGU-20A in-line vacuum degasser units, and SIL-20A HT autosampler with an InertSustain C-18, 2.1 × 50 mm, 3 µm particle size, (GL Sciences, Torrance, CA, USA) was used for the separation and the effluent from the column was introduced directly to the ionization source. The system was controlled by Shimadzu LCMS solution software (version 3) to collect and process data. All samples were run with Solvent A and Solvent B with Solvent B gradient changing from 0%–90% at a rate of 13.8%/min over a 22 min run. […]

In data set [2] the test system is AsPC-1 cells. The data set can be described thus: Cell proliferation assay (XTT) in AsPC-1 cells. It counts as cell-based. Conditions: 24 h recovery. As to the method:
Cell proliferation studies were conducted with Panc-1 and AsPC-1 cells. The cells were seeded into 96-well plates at 80,000 cells per well and allowed to attach/grow for 48 h before drug solutions were added. The culture medium (DMEM +10% fetal bovine serum or RPMI-1640 +10% fetal bovine serum) was removed and the cells were gently washed once with sterile pH 6.0 uptake buffer. Floxuridine, 5′-L-phenylalanyl-L-tyrosyl-floxuridine, gemcitabine and 5′-L-phenylalanyl-L-tyrosyl-gemcitabine were 2-fold serially diluted in pH 6.0 uptake buffer from 5 to 0.078 mmol/L. Buffer alone was used as a 100% viability control. The wash buffer was removed and 30 µL drug solution per well was added and incubated at 37 °C for 2 h in the cell incubator. After this time, the drug solutions were removed and the cells were again gently washed twice with sterile uptake buffer. The culture medium was then added to each well after washing. The cells were allowed to recover for 24 h before evaluating cell viability via 2,3-bis[2-methoxy-4-nitro-5-sulfophenyl]-2H-tetrazolium-5-carboxanilide inner salt (XTT) assays. A mixture (30 µL) containing XTT (1 mg/mL) in sterile RPMI-1640 without phenol red and phenazine methosulfate (N-methyldibenzopyrazine methyl sulfate in sterile PBS, 0.383 mg/mL) reagents were added to the cells and incubated at 37 °C for 1 h, after which the absorbance at 450 nm was read. The concentrations required to inhibit cell growth by 50% (GI50) were calculated using GraphPad Prism version 3.0 by nonlinear data fitting.

Data set [3] in a line: Enzymatic stability in Panc-1 cell homogenates. Type of data set: in vitro ADME. The following applies: human, Panc-1 cell homogenates, pH 7.4; 500 µg/mL protein, 37 °C; read-out: Panc-1 cell homogenates t1/2. As to the method:
Confluent Caco-2, Panc-1, and AsPC-1cells were rinsed twice with phosphate buffered saline (PBS). The cells were lysed with phosphate buffer (pH 7.4) by ultrasonication (Micro ultrasonic cell disrupter Model KT40, Kontes, Vineland, NJ, USA), and pelleted by centrifugation for 5 min at 1,000 × g. Protein amount was quantified with the Bio-Rad (Hercules, CA, USA) DC Protein Assay using bovine serum albumin as a standard. The amount of protein was adjusted to 500 µg/mL and hydrolysis reactions were carried out in 96-well plates (Corning). Caco-2, Panc-1, and AsPC-1 cell suspensions (250 µL) were placed in triplicate wells, the reactions were started with the addition of substrate, and cells were incubated at 37 °C for 120 min. At the desired time point, sample aliquots (35 µL) were removed and added to acetonitrile (ACN, 150 µL) with 0.1% TFA. The mixtures were filtered with a 0.45 µm filters at 1,000 × g for 10 min at 4 °C. The filtrate was then analyzed via reverse-phase HPLC.
The stability samples of prodrugs and their metabolites, and perfusion samples were determined on an Agilent HPLC system (Agilent Technologies, Santa Clara, CA, USA). The HPLC system consisted of Agilent pumps (1100 series), an Agilent autosampler (1200 series), and an Agilent UV-Vis detector (1100 series) controlled by Chemstation® 32 software (version B.01.03). Samples were resolved in an Agilent Eclipse Plus C18 reverse-phase column (3.5 µm, 4.6 × 75 mm) equipped with a guard column. The mobile phase consisted of 0.1% TFA/water (Solvent A) and 0.1% TFA/acetonitrile (Solvent B) with the solvent B gradient changing from 0%–56% at a rate of […] during a 15 min run for gemcitabine and gemcitabine prodrugs. Standard curves generated for each prodrug and their parent drug were utilized for quantitation of integrated area under peaks. The detection wavelength was 254 nm and spectra were acquired in the 220–380 nm wavelength range. The detection wavelength for phenol red was 430 nm.
The experiments concerning drug and their prodrug stability were performed at 37 °C in 0.01 N HCl, SIF (pH 6.0), and pH 7.4 phosphate buffer. […] Prodrug metabolites such as floxuridine, 5-fluorouracil (5-FU), gemcitabine, 2′-deoxy-2′,2′-difluorouridine, uracil, and cytosine were monitored along with prodrug disappearance in this experiment.

The mark [4] stands for this setting: Homo sapiens, ASPC1, 2 h exposure.

Take “2′,2′-difluoro-2′-deoxyuridine [Gemcitabine]”: in data set [1], the “Parent drug, share of uptake” value is on record as 90%. This compound also registered a GI50 in data set [2] (2 h exposure) of 10.2 ± 1.6 mM.
Consider `NC(Cc1ccccc1)C(=O)NC(Cc1ccc(O)cc1)C(=O)OCC1OC(n2cc(F)c(=O)[nH]c2=O)CC1O` [5′-L-Phenylalanyl-L-tyrosyl-floxuridine], for which the half-life in data set [3] is 40.4 ± 0.2 min. Further, the “Prodrug, share of uptake” value in data set [1] stood at 60%. The compound further yielded a GI50 in data set [2] (setting [4]) of 4.2 ± 0.1 mM.
Taken in the same sequence, the figures for `Nc1ccn(C2OC(COC(=O)C(Cc3ccc(O)cc3)NC(=O)C(N)Cc3ccccc3)C(O)C2(F)F)c(=O)n1` [5′-L-Phenylalanyl-L-tyrosyl-gemcitabine] were 30.2 ± 1.1 min, 39% and 5 ± 0.3 mM.
Consider `O=c1[nH]c(=O)n([C@H]2C[C@H](O)[C@@H](CO)O2)cc1F` [Floxuridine, 5-fluoro-2′-deoxyuridine], for which the half-life in data set [3] turned out to be 41.7 ± 6.8 min.
